How the values were obtained:
[1] = molecular target: T1, HMG-CoA reductase (Rattus norvegicus, UniProt P51639); assay: Inhibition of HMG-CoA reductase in a microsome fraction from rat liver; type: biochemical; details: rat liver microsomes; for HMG-CoA-reductase Inhibition in %: concentration not given, method: 10^-4 M or 10^-5 M
T1 construct: microsomes from rat livers; from tissue; host or cells: liver of cholestyramine-treated rats (reversed day/night rhythm), microsome fraction
T1 sequence (P51639 1-887): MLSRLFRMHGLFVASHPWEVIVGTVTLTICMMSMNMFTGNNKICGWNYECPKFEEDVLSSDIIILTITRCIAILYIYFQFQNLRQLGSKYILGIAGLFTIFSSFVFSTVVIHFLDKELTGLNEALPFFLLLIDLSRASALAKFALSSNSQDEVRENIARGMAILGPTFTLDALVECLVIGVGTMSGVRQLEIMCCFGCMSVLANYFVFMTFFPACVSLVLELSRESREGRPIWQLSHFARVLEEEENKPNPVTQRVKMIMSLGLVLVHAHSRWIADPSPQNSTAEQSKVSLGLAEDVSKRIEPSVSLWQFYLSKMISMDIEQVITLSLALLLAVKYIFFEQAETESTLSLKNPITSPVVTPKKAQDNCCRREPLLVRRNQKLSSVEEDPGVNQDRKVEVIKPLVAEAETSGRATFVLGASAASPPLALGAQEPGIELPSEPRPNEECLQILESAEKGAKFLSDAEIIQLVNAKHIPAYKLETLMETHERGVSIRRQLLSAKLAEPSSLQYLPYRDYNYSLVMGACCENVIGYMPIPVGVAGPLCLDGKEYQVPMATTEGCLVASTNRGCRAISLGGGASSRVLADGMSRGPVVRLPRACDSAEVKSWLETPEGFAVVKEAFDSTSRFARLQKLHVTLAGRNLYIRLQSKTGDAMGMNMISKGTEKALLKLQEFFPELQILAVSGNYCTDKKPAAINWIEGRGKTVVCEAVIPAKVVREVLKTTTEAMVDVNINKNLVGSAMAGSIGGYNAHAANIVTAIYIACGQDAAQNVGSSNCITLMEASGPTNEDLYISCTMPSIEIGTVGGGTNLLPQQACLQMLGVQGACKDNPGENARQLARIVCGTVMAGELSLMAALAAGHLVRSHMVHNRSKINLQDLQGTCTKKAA
Source text: Inhibition of HMG-CoA reductase in a microsome fraction from rat liver
For the determination of the HMG-CoA reductase activity, microsomes from rat livers, which had been treated for 7 days in the case of reversed day/night rhythm with cholestyramine, were separated by centrifuging. The action of the test compounds at a concentration of 10^-4 M or 10^-5 M on the formation of mevalonate from (S,R) ^14 C--HMG--CoA was investigated. The experimental conditions are described in detail by J. Huber. S. Latzien and B. Hamprecht, Hoppe-Seylers Z. Physiol. Chem., 354, 1654/1973.

[2] = tested on: HMG-CoA reductase; details: literature: Endo 1976; Alberts 1980; cited from earlier work

| SMILES | HMG-CoA-reductase Inhibition in % [1] | competitive inhibition of HMG-CoA reductase (in words) [2] | other results |
| --- | --- | --- | --- |
| O=C1C[C@H](O)C[C@@H](/C=C/c2ccccc2C2=CCCCC2)O1 (relative stereo) [2 (i)] |  |  | inhibition at 100 µM ([1]; 10^-4 M): 63% |
| CC[C@H](C)C(=O)O[C@H]1CCC=C2C=C[C@H](C)[C@H](CC[C@@H]3C[C@@H](O)CC(=O)O3)[C@H]21 [compactin A] |  | competitively to inhibit HMG-CoA reductase |  |
| CC[C@H](C)C(=O)O[C@H]1C[C@@H](C)C=C2C=C[C@H](C)[C@H](CC[C@@H]3C[C@@H](O)CC(=O)O3)[C@H]21 [mevinolin] |  | competitively to inhibit HMG-CoA reductase |  |

More lines, main results first:

| HMG-CoA-reductase Inhibition in % [1] | SMILES | competitive inhibition of HMG-CoA reductase (in words) [2] | other results |
| --- | --- | --- | --- |
| 95% | O=C1C[C@H](O)C[C@@H](/C=C/c2c(Cl)cc(Cl)cc2C2CCCCCC2)O1 (relative stereo) [2 (a)] |  |  |
| 93% | O=C1C[C@H](O)C[C@@H](/C=C/c2c(Cl)cccc2C2CCCCCC2)O1 (relative stereo) [2 (b)] |  |  |
| 90% | O=C1C[C@H](O)C[C@@H](/C=C/c2c(Cl)cc(Cl)cc2C2CCCCC2)O1 (relative stereo) [2 (c)] |  |  |

Source: patent publication US4970077A, “6-substituted-4-hydroxytetrahydropyran-2-one derivatives and pharmaceutical compositions containing them” (Boehringer Mannheim GmbH, priority 1988, dated 1990)
